Results taken from patent US20240262795A1, “PYRAZINE COMPOUNDS AS INHIBITORS OF FLT3” (Biomea Fusion, Inc., priority 2021, published 2024).

How the values were obtained:
Type in all cases: cell-based, human
MOLM-13 = test: Proliferation inhibition, CellTiter-Glo, MOLM-13; settings: Homo sapiens, 96 h; MOLM-13 cells, IC50 (4 days), CellTiter-Glo; read-out: MOLM-13 IC50
Description: (§1) The proliferation inhibitory effect was investigated in human AML cell lines MOLM-13 (AddexBio: C0003003) and MV-4-11 (ATCC: CRL-9591), and CML cell line […] (ATCC: CRL-3343). Molm-13 is heterozygous for FLT3-ITD mutation, while MV4-11 is homozygous for FLT3-ITD (Quentmeier H, et al., Leukemia. 17(1):120-4). […] Cells were maintained in RPMI-1640 medium (ThermoFisher catalog no. 61870036) supplemented with 10% of Heat Inactivated FBS (ThermoFisher catalog no. A31605) and 1% Pen-Strep (ThermoFisher catalog no. 10378016) and cultured at 37° C. in a humidified incubator with 5% CO2. Cell lines were grown by […], and the cells were maintained in a range 70%-80% confluency.
(§2) ATP is present in all metabolically active cells and is considered as a marker for cell viability and proliferation. Metabolic cell activity was determined using the CellTiter-Glo kit (Promega catalog no. G7572), an ATP monitoring system based on the production of luminescence by the reaction of ATP with added UltraGlo® recombinant luciferase (Kawano et al., 2016, PLOS One, 8; 11(7):e0158888), according to the supplier's experimental recommendations. The assay was based on a 96 well plate format.
(§3) Test compounds were dissolved at 10 mM in DMSO (Sigma catalog no. D8418; purity≥99.9%) and stored at −20° C. Eight concentrations of test compound were assessed in duplicate in an individual test occasion in parallel in the selected cell lines. Gilteratinib and FF-10101 were used as reference compounds and tested in duplicate at eight concentrations. 100% of proliferation is represented by the untreated cells (0.2% DMSO).
(§4) On the day of the experiment, cells were quantified with the cell viability analyzer NucleoCounter (Chemometec NC-200) and diluted with fresh medium to obtain the cell density of about 10,000 cells per 200 μL medium. 200 μL of cell suspension were added into wells in the 96 well plate.
(§5) After 2 hours from seeding cells, compounds at desired concentrations were added using a D300e compound dispenser (Life Sciences Tecan D300) with shaking between each compound dispensed. Assay plates were incubated at 37° C. in a humidified incubator with 5% CO2.
(§6) On day 4 (˜96 hrs after compound addition) assay plates were equilibrated at room temperature for approximately 15 min, and then 40 μL/well of the Promega CellTiterGlo® reagent was added. Contents were mixed for 5 min on an orbital shaker to promote cell lysis, and then incubated at room temperature for an additional 10 min in the dark to stabilize the luminescent signal. Luminescence was read by using a GloMlax GM300 plate reader (Promega) using the luminescence for 96 well plate standard protocol.
(§7) Results were analyzed by GraphPad (Prism) and IC50 values were calculated by non-linear regression using four parameter-logistic equation.

MV-4-11 = test: Proliferation inhibition, CellTiter-Glo, MV-4-11; settings: Homo sapiens, MV4-11, 96 h; MV-4:11 cells, IC50 (4 days), CellTiter-Glo; read-out: MV-4:11 IC50
Description: as §1, §2, §3, §4, §5, §6, §7

K-562 = test: Proliferation inhibition, CellTiter-Glo, K-562; settings: Homo sapiens, K562, 96 h; K-562 cells, IC50 (4 days), CellTiter-Glo; read-out: K-562 IC50
Description: as §1, §2, §3, §4, §5, §6, §7

Row | IC50 (MOLM-13) [nM] | IC50 (MV-4-11) [nM] | IC50 (K-562) [nM] | SMILES
1 | 1 to 10 | < 1 | > 500 | CCc1nc(Nc2cccc(CCNC(=O)[C@H](C)N(C)C(=O)/C=C/CN(C)C)c2)c(C(N)=O)nc1CC [Compound 243, (S,E)-3-((3-(2-(2-(4-(dimethylamino)-N-methylbut-2-enamido)propanamido)ethyl)phenyl)amino)-5,6-diethylpyrazine-2-carboxamide]
2 | 100 to 500 | 10 to 100 | > 500 | CCc1nc(C(N)=O)c(Nc2cccc([C@H](C)CNC(=O)CN(C)C(=O)/C=C/CN(C)C)c2)nc1C [Compound 324, (S,E)-3-((3-(1-(2-(4-(dimethylamino)-N-methylbut-2-enamido)acetamido)propan-2-yl)phenyl)amino)-6-ethyl-5-methylpyrazine-2-carboxamide]
3 | 100 to 500 | 10 to 100 | > 500 | CCc1cc(C(N)=O)c(Nc2cccc(CCNC(=O)[C@H](C)N(C)C(=O)/C=C/CN(C)C)c2)nc1N(C)C [Compound 322, (S,E)-6-(dimethylamino)-2-((3-(2-(2-(4-(dimethylamino)-N-methylbut-2-enamido)propanamido)ethyl)phenyl)amino)-5-ethylnicotinamide]
4 | 10 to 100 | 1 to 10 | > 500 | Cc1nc(C(N)=O)c(Nc2cccc(CCNC(=O)C(C)N(C)C(=O)/C=C/CN(C)C)c2)nc1C1CC1 (stereo not drawn) [Compound 211, 5-cyclopropyl-3-[3-[2-[2-[[(E)-4-(dimethylamino)but-2-enoyl]-methyl-amino]propanoylamino]ethyl]anilino]-6-methyl-pyrazine-2-carboxamide]
5 | > 500 | > 500 | > 500 | C=C(F)C(=O)N(C)[C@@H](C)C(=O)NCCc1cccc(Nc2nc(C3CC3)c(CC)nc2C(N)=O)c1 [Compound 215, 5-cyclopropyl-6-ethyl-3-[3-[2-[[(2S)-2-[2-fluoroprop-2-enoyl(methyl)amino]propanoyl]amino]ethyl]anilino]pyrazine-2-carboxamide]
6 | 1 to 10 | 1 to 10 | > 500 | CCc1nc(C(N)=O)c(Nc2cccc(CCNC(=O)[C@H](C)N(C)C(=O)/C=C/CN3CCC3)c2)nc1C [Compound 202, (S,E)-3-((3-(2-(2-(4-(azetidin-1-yl)-N-methylbut-2-enamido)propanamido)ethyl)phenyl)amino)-6-ethyl-5-methylpyrazine-2-carboxamide]
7 | 1 to 10 | 1 to 10 | > 500 | [2H]C([2H])([2H])N(C/C=C/C(=O)N(C)[C@@H](C)C(=O)NCCc1cccc(Nc2nc(C3CC3)c(C)nc2C(N)=O)c1)C([2H])([2H])[2H] [Compound 248, (S,E)-3-((3-(2-(2-(4-(bis(methyl-d3)amino)-N-methylbut-2-enamido)propanamido)ethyl)phenyl)amino)-5-cyclopropyl-6-methylpyrazine-2-carboxamide]
8 | 1 to 10 | < 1 | > 500 | Cc1nc(C(N)=O)c(Nc2cccc(CCNC(=O)[C@H](C)N(C)C(=O)/C=C/CN(C)C)c2)nc1N(C)C [Compound 233, (S,E)-5-(dimethylamino)-3-((3-(2-(2-(4-(dimethylamino)-N-methylbut-2-enamido)propanamido)ethyl)phenyl)amino)-6-methylpyrazine-2-carboxamide]
9 | 10 to 100 | 1 to 10 | > 500 | CCc1nc(C(N)=O)c(Nc2cccc(CCNC(=O)[C@H](C)N(C)C(=O)CCCN(C)C)c2)nc1N(C)C(C)C [Compound 318, 3-[3-[2-[[(2S)-2-[4-(dimethylamino)butanoyl-methyl-amino]propanoyl]amino]ethyl]anilino]-6-ethyl-5-[isopropyl(methyl)amino]pyrazine-2-carboxamide]
10 | 100 to 500 | 10 to 100 | > 500 | CCc1nc(C(N)=O)c(Nc2cccc(C[C@@H](C)NC(=O)CN(C)C(=O)/C=C/CN(C)C)c2)nc1C [Compound 311, 3-[3-[(2R)-2-[[2-[[(E)-4-(dimethylamino)but-2-enoyl]-methyl-amino]acetyl]amino]propyl]anilino]-6-ethyl-5-methyl-pyrazine-2-carboxamide]
11 | 100 to 500 | 100 to 500 | > 500 | CCc1nc(C(N)=O)c(Nc2cc(CCNC(=O)[C@H](C)N(C)C(=O)/C=C/CN(C)C)ccn2)nc1C1CC1 [Compound 304, 5-cyclopropyl-3-[[4-[2-[[(2S)-2-[[(E)-4-(dimethylamino)but-2-enoyl]-methyl-amino]propanoyl]amino]ethyl]-2-pyridyl]amino]-6-ethyl-pyrazine-2-carboxamide]
12 | 10 to 100 | 10 to 100 | > 500 | C=CC(=O)N(C)[C@H](C)C(=O)NCCc1cccc(Nc2nc(C3CC3)c(CC)nc2C(N)=O)c1 [Compound 236, 5-cyclopropyl-6-ethyl-3-[3-[2-[[(2R)-2-[methyl(prop-2-enoyl)amino]propanoyl]amino]ethyl]anilino]pyrazine-2-carboxamide]
13 | 100 to 500 | 100 to 500 | > 500 | CCc1nc(C(N)=O)c(Nc2cccc([C@H](C)CNC(=O)[C@H](C)N(C)C(=O)/C=C/CN(C)C)c2)nc1C [Compound 325, 3-[3-[(1S)-2-[[(2S)-2-[[(E)-4-(dimethylamino)but-2-enoyl]-methyl-amino]propanoyl]amino]-1-methyl-ethyl]anilino]-6-ethyl-5-methyl-pyrazine-2-carboxamide]
14 | 1 to 10 | 1 to 10 | > 500 | Cc1nc(C(N)=O)c(Nc2cccc(CCNC(=O)[C@H](C)N(C)C(=O)/C=C/CN(C)C)c2)nc1C1CC1 [Compound 228, (S,E)-5-cyclopropyl-3-((3-(2-(2-(4-(dimethylamino)-N-methylbut-2-enamido)propanamido)ethyl)phenyl)amino)-6-methylpyrazine-2-carboxamide]
15 | 10 to 100 | 1 to 10 | > 500 | Cc1nc(Nc2cc(F)cc(CCNC(=O)CN(C)C(=O)/C=C/CN(C)C)c2)c(C(N)=O)nc1C [Compound 251, 3-[3-[2-[[2-[[(E)-4-(dimethylamino)but-2-enoyl]-methyl-amino]acetyl]amino]ethyl]-5-fluoro-anilino]-5,6-dimethyl-pyrazine-2-carboxamide]
16 | 10 to 100 | 10 to 100 | > 500 | Cc1nc(Nc2cccc(CCNC(=O)[C@H](C)N(C)C(=O)/C=C/CN3CCC3)c2)c(C(N)=O)nc1C [Compound 214, 3-[3-[2-[[(2S)-2-[[(E)-4-(azetidin-1-yl)but-2-enoyl]-methyl-amino]propanoyl]amino]ethyl]anilino]-5,6-dimethyl-pyrazine-2-carboxamide]
17 | 100 to 500 | 10 to 100 | > 500 | CCc1nc(C(N)=O)c(Nc2cccc(CCNC(=O)[C@H](C)N(C)C(=O)/C(F)=C/CN(C)C)c2)nc1N(C)C [Compound 162, (S,Z)-5-(dimethylamino)-3-((3-(2-(2-(4-(dimethylamino)-2-fluoro-N-methylbut-2-enamido)propanamido)ethyl)phenyl)amino)-6-ethylpyrazine-2-carboxamide]
18 | 1 to 10 | < 1 | > 500 | CCc1nc(C(N)=O)c(Nc2ccnc(CCNC(=O)CN(C)C(=O)/C=C/CN3CCC3)c2)nc1CC(C)C [Compound 604, (E)-3-((2-(2-(2-(4-(azetidin-1-yl)-N-methylbut-2-enamido)acetamido)ethyl)pyridin-4-yl)amino)-6-ethyl-5-isobutylpyrazine-2-carboxamide]
19 | 100 to 500 | 10 to 100 | > 500 | CCc1nc(C(N)=O)c(Nc2cccc(C[C@@H](C)NC(=O)[C@H](C)N(C)C(=O)/C=C/CN(C)C)c2)nc1C [Compound 314, 3-[3-[(2R)-2-[[(2S)-2-[[(E)-4-(dimethylamino)but-2-enoyl]-methyl-amino]propanoyl]amino]propyl]anilino]-6-ethyl-5-methyl-pyrazine-2-carboxamide]
